# In US20200368234A1, “PHOTORECEPTOR GENE MODULATOR PHOTOREGULIN 3 FOR TREATMENT OF RETINAL DISEASE” (University of Washington, priority 2017, published 2020):
# “Also recorded” adds a separate entry of the source.
# Legend:
# photoreceptors = experiment: Electron microscopy of photoreceptor morphology in wild type mice after PR3; assay type: in vivo; conditions: 10 mg/kg i.p. for 3 consecutive days from P11, EM at P14
# Procedure: FIG. 2C compares electron microscope micrographs of retinal sections of wild type mice treated with 10 mg/kg PR3 or DMSO vehicle. Compared to controls, PR3 retinas have arrested inner and outer segment development and less compact heterochromatin in the ONL. Scale bars represent 10 μm (top) and 2 μm (bottom).
# Electron microscopy (EM) was used to perform an ultrastructural analysis of photoreceptor morphology after PR3 treatment. Wild type mice were intraperitoneally injected with vehicle or PR3 for 3 consecutive days starting at P11. At P14, 24 h after the third injection, the mice were euthanized and processed their retinas for EM. Photoreceptor outer segments begin to form during the second and third postnatal week; genetic loss-of-function mutations in Nr2e3 lead to an impairment in rod outer segment formation.
# Photoregulin3 was identified by searching previous small molecule screens with SciFinder and PubChem for Nr2e3 interacting molecules. It was initially obtained from ChemDiv and then synthesized and purified in large quantities in the lab after initial screening. For in vivo experiments, mice were injected intraperitoneally with PR3 dissolved in DMSO at 10 mg/kg.
# Mice were euthanized by CO2, and then perfused with 0.9% saline followed by 4% glutaraldehyde in 0.1 M sodium cacodylate buffer. Eye cups were fixed in 4% glutaraldehyde in 0.1 M sodium cacodylate buffer, washed with 0.1 M sodium cacodylate buffer, and then post-fixed in 2% osmium tetroxide. After fixation, eye cups were washed with water, dehydrated through a graded series of ethanol, incubated in propylene oxide and then epon araidite, polymerized overnight at 60° C., and then sectioned at a thickness of 70 nm. Images were obtained using a JEOL JEM-1230 electron microscope.
# Nr2e3-NCOR dimer complex = target: T1, Nr2e3-NCOR dimer complex (Homo sapiens, UniProt Q9Y5X4); conditions: PubChem Assay IDs 602229, 624378, 624394, 651849; cited from earlier work
# T1 construct: expressed in transfected cells; host or cells: CHO-S cells
# T1 sequence (Q9Y5X4 whole entry, one chain of several): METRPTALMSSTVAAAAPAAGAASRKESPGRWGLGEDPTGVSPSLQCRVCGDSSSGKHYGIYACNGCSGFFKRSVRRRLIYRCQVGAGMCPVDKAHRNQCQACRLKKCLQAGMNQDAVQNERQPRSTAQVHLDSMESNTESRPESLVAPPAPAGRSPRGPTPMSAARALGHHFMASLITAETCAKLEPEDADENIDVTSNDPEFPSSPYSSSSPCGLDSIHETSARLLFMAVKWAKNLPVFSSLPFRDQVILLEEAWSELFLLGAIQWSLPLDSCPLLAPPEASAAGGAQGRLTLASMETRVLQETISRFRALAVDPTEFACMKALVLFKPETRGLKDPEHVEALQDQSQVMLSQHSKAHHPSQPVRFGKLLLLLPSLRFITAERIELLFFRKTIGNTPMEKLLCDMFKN
# [1] = tested on: S Opsin+ cells in the ventral retina; experiment: S Opsin+ cell count in intact retinal explant cultures; assay type: cell-based; conditions: P11 mouse intact retina explants, 0.3 μM PR3, 3 DIV, vs DMSO
# From the text: Scale bar represents 50 μm. E. PR3-treated retinas had more S Opsin+ cells per 100 μm×100 μm field in the ventral retina compared to DMSO-treated retinas (n=3, *p<0.05, Student's t-test).
# FIG. 1E is a graph quantifying the effects of PR3 on S-opsin expression; treatment conditions were the same as those in FIG. 1D. S-opsin+ cones are predominantly present in the ventral retina of mice.
# Mutations in Nr2e3 result in an increased number of S Opsin+ photoreceptors as well as a reduction in rod gene expression. To determine if PR3 treatment also affects cone gene expression, intact retinas were explanted from P11 wild type mice in media containing DMSO or PR3 for 3 days. Intact retinas were used for this experiment to assess changes in dorsal and ventral retina independently. After fixation and whole mount immunostaining, S Opsin+ cells were counted in the ventral retina.
# Intact retinas without RPE from P11 C57Bl/6 mice were explanted on 0.4 μm pore tissue culture inserts in media (Neurobasal-A containing 1% FBS, 1% N2, 1% B27, 1% Pen/Strep, and 0.5% L-Glutamine) containing DMSO or 0.3 μM Photoregulin3. Full media changes were performed every other day. […] Cells were counted from single plane confocal images taken at fixed settings.
smiles,measurement,setting,value
COc1cc2nc(CN3CC=C(c4ccccc4)CC3)nc(O)c2cc1OC [PR3],heterochromatin of rod nuclei (EM),photoreceptors,smaller patches of densely packed heterochromatin compared to DMSO retinas
same,photoreceptor apoptosis / cell death in ONL nuclei (EM),photoreceptors,not due to an increase in cell death
same,photoreceptor outer segment development (EM),photoreceptors,prevented outer segment development
same,modulation of Nr2e3 in luciferase-based assay,Nr2e3-NCOR dimer complex,identified as a chemical modulator of Nr2e3
same,S Opsin+ cells per 100 μm×100 μm field in the ventral retina,[1],significantly more S Opsin+ cells per 100 μm×100 μm field in the ventral retina compared to DMSO-treated retinas; also recorded: increase in the number S Opsin+ cells in the ventral retina
